The record followed here is ChEMBL document CHEMBL1781936, “Structure-based design of potent aromatase inhibitors by high-throughput docking” (J Med Chem, 2011).

System in the first data set: not listed separately
Kind of data set: Solubility of the compound. The class given is physicochemical.
As for `COc1cc2sc(NC(=O)c3ccccc3Cn3cncn3)nc2cc1Cl`, the solubility result is recorded as “Insoluble”.

Another data set deals with T1, Aromatase (Homo sapiens, UniProt P11511).
T1 sequence (P11511 whole entry): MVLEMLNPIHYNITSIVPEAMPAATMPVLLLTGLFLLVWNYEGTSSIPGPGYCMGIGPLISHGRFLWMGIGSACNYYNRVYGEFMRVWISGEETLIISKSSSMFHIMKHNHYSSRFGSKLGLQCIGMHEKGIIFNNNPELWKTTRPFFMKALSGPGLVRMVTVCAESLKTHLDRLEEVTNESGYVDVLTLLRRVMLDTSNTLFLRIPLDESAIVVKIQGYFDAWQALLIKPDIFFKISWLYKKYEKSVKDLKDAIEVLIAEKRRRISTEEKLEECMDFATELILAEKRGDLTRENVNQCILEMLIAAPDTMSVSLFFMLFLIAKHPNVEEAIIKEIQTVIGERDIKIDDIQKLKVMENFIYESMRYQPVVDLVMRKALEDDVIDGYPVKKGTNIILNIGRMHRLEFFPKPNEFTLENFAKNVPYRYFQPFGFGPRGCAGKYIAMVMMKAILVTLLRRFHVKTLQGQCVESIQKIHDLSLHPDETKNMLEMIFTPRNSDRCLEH
Kind of data set: Inhibition of human recombinant aromatase using 7-methoxy-4-trifluoromethyl coumarin as substrate at 25 uM by fluorimetric analysis.
As for `CC(C)(C)C(Cn1ccnc1)NC(=O)c1cc(N2CCOCC2)nc2ccccc12` (racemic), the “inhibition (INH)” value is “Not Active”.

Another data set addresses T1, Aromatase. The data set is described as follows: Inhibition of human recombinant aromatase using 7-methoxy-4-trifluoromethyl coumarin as substrate by fluorimetric analysis.
For the compound `Cc1ccc(C(=O)NCCCn2ccnc2)cc1[N+](=O)[O-]`, the IC50 is 1000 nM.
Consider `COc1ccc2c(c1)OC1(CCN(C(=O)Cn3cncn3)CC1)CC2=O`, for which the IC50 was 5790 nM.
For `COc1ccc(C(=O)OC(COc2ccccc2)Cn2ccnc2)cc1` (racemic), the IC50 was found to be 16.5 nM.
For the compound `O=C(Cc1ccc2c(c1)OCO2)N1CCOC(Cn2ccnc2)C1` (racemic), the IC50 was 46.7 nM.
In the case of `COc1ccc(S(=O)(=O)NCCCn2ccnc2)cc1F`, the IC50 amounted to 100 nM.
On to `COc1cc2c(cc1-c1cncn1CCCn1ccnc1C)OCCCO2`, for which the IC50 is 498 nM.
As for `COc1cc(Cl)c(S(=O)(=O)NCCCn2ccnc2)cc1Cl`, the IC50 was determined as 63.7 nM.
For the compound `Cc1ncc(CNc2ccc(OCC(O)Cn3ccnc3)cc2)cn1` (racemic), the IC50 was determined as 3500 nM.
Regarding `COc1ccc(S(=O)(=O)N2CCOC(Cn3ccnc3)C2)cc1` (racemic), the IC50 was 78.8 nM.
`O=C(Cc1ccc(F)cc1)N1CCOC(Cn2ccnc2)C1` (racemic): the IC50 is 34.5 nM.
As for `Cc1ccc(C(=O)NCCCn2ccnc2)cn1`, the IC50 stood at 10600 nM.
Same read-out and setting: then `COc1ccc(C(C)NC(=O)c2ccccc2Cn2cncn2)cc1F` (racemic), with 3100 nM; and `O=c1oc2cc(OCC(O)Cn3cncn3)ccc2c2c1CCC2` (racemic), with 21700 nM; and `CC(CNC(=O)c1cc2c([nH]c1=O)CCCCC2)n1cncn1` (racemic), with over 25000 nM.
For the compound `C=CCN(c1ccc(C(=O)NCCCn2ccnc2)cc1)S(C)(=O)=O`, the IC50 worked out at 2500 nM.
Take `O=S(=O)(NCCCn1ccnc1)c1ccc2c(c1)OCCO2`: the IC50 was 119 nM.
Still for that read-out and setting: to `O=C(Cn1ccnc1)Nc1ccccc1Oc1ccc(F)cc1` belongs 248 nM.
With `O=C(CCn1ccnc1)NC[C@H]1CC[C@H](c2ncncc2-c2ccccn2)CC1`, the IC50 was 3100 nM.
On the same count and under the same terms, then `Cc1cc(C)c(S(=O)(=O)NCCCn2ccnc2)cc1C`, with 172 nM; and `CC(C)(C(=O)Nc1ccccc1Oc1ccc(F)cc1)n1cncn1`, with 13200 nM; and `COc1cc(CC(=O)N2CCOC(Cn3ccnc3)C2)cc(OC)c1OC` (racemic), with 59.2 nM.
Take `COc1ccc(S(=O)(=O)NCCCn2ccnc2)cc1C`: the IC50 is 61.6 nM.
Take `COc1ccc(S(=O)(=O)N2CCCC(Cn3ccnc3)C2)cc1C(C)(C)C` (racemic): the IC50 stood at 9.4 nM.
As for `O=C(C(=Cc1ccccc1)n1cncn1)c1ccc(Cl)cc1Cl` (mixture of isomers), the concentration for half-maximal inhibition (IC50) was 441 nM.
With `COc1ccc(S(=O)(=O)NCCCn2ccnc2)cc1C(C)(C)C`, the IC50 is 440 nM.
For `O=C(Cn1cncn1)NC(CCc1ccccc1)c1ccc2c(c1)OCCO2` (racemic), the IC50 was found to be 991 nM.
`CCc1[nH]c2ccc(C(=O)NCC(C)n3cncn3)cc2c1C` (racemic): the IC50 was 10600 nM.
`CC1(C)Oc2ccc(S(=O)(=O)NCCCn3ccnc3)cc2NC1=O`: the half-maximal inhibitory concentration (IC50) was found to be 499 nM.
As to `CC(=O)c1ccc(S(=O)(=O)N2CCOC(Cn3ccnc3)C2)cc1` (racemic), the IC50 stood at 66.5 nM.
Take `CCOc1ccc(S(=O)(=O)NCCCn2ccnc2)c2ccccc12`: the IC50 worked out at 761 nM.
